Experimental data: PubChem BioAssay AID2060904 (Molecular Pharmacology Branch, DTP, NCI, 2025)

Test system: 349418-098-R-PDC complex spheroid viability
Test: Anticancer human tumor 349418-098-R-PDC patient-derived lung adenocarcinoma cell line growth inhibition [RAS]
Conditions: for IC50: curve of first compound; for viability, T/C: stronger effect = lower value
Summary of the method: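 Multi-cell-type spheroids: tumor cells plus HUVEC endothelial cells and mesenchymal stem cells. RAS-pathway inhibitors were combined with targeted agents, each dosed in half-log steps down from clinical Cmax, or from 10 microM when Cmax was unknown.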

[1] = second compound 0.000949 µM, first compound 0.000949 µM
[2] = second compound 0.000949 µM, first compound 0.003 µM
[3] = second compound 0.000949 µM, first compound 0.00949 µM
[4] = second compound 0.000949 µM, first compound 0.03 µM
[5] = second compound 0.000949 µM, first compound 0.0949 µM
[6] = second compound 0.000949 µM, first compound 0.3 µM
[7] = second compound 0.003 µM, first compound 0.000949 µM
[8] = second compound 0.003 µM, first compound 0.003 µM
[9] = second compound 0.003 µM, first compound 0.00949 µM
[10] = second compound 0.003 µM, first compound 0.03 µM
[11] = second compound 0.003 µM, first compound 0.0949 µM
[12] = second compound 0.003 µM, first compound 0.3 µM
[13] = second compound 0.00949 µM, first compound 0.000949 µM
[14] = second compound 0.00949 µM, first compound 0.003 µM
[15] = second compound 0.00949 µM, first compound 0.00949 µM
[16] = second compound 0.00949 µM, first compound 0.03 µM
[17] = second compound 0.00949 µM, first compound 0.0949 µM
[18] = second compound 0.00949 µM, first compound 0.3 µM
[19] = second compound 0.03 µM, first compound 0.000949 µM
[20] = second compound 0.03 µM, first compound 0.003 µM
[21] = second compound 0.03 µM, first compound 0.00949 µM
[22] = second compound 0.03 µM, first compound 0.03 µM
[23] = second compound 0.03 µM, first compound 0.0949 µM
[24] = second compound 0.03 µM, first compound 0.3 µM
[25] = second compound 0.0949 µM, first compound 0.000949 µM
[26] = second compound 0.0949 µM, first compound 0.003 µM
[27] = second compound 0.0949 µM, first compound 0.00949 µM
[28] = second compound 0.0949 µM, first compound 0.03 µM
[29] = second compound 0.0949 µM, first compound 0.0949 µM
[30] = second compound 0.0949 µM, first compound 0.3 µM
[31] = second compound 0.3 µM, first compound 0.000949 µM
[32] = second compound 0.3 µM, first compound 0.003 µM
[33] = second compound 0.3 µM, first compound 0.00949 µM
[34] = second compound 0.3 µM, first compound 0.03 µM
[35] = second compound 0.3 µM, first compound 0.0949 µM
[36] = second compound 0.3 µM, first compound 0.3 µM
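Further: spheroids exposed to compound for seven days before viability readout.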

Question: CC1(C)CCC(Nc2ncc(C(F)(F)F)c(-c3c[nH]c4c(P(C)(C)=O)c(C#N)ccc34)n2)CN1 (centres undefined) + CCn1c(-c2cc(N3CCN(C)CC3)cnc2C(C)OC)c2c3cc(ccc31)-c1csc(n1)CC(NC(=O)C1CC1C)C(=O)N1CCCC(N1)C(=O)OCC(C)(C)C2 was tested. Which IC50 (second compound 0.000949 µM) did it give?
Answer: 1.07 nM

Question: What about the IC50 (second compound 0.003 µM) of the same compound?
Answer: 1.02 nM

Question: What about the IC50 (second compound 0.00949 µM) of the same compound?
Answer: < 0.949 nM

Question: What about the IC50 (second compound 0.03 µM) of the same compound?
Answer: 1.05 nM

Question: What about the IC50 (second compound 0.0949 µM) of the same compound?
Answer: < 0.949 nM

Question: What about the IC50 (second compound 0.3 µM) of the same compound?
Answer: 1.09 nM

Question: What about the viability, T/C [1] of the same compound?
Answer: 53.6%

Question: What about the viability, T/C [2] of the same compound?
Answer: 23.1%

Question: What about the viability, T/C [3] of the same compound?
Answer: 13.3%

Question: And the viability, T/C [4]?
Answer: 9.61%

Question: And the viability, T/C [5]?
Answer: 8.11%

Question: What about the viability, T/C [6] of the same compound?
Answer: 6.35%

Question: And the viability, T/C [7]?
Answer: 52.2%

Question: And the viability, T/C [8]?
Answer: 22.1%

Question: And the viability, T/C [9]?
Answer: 14.4%

Question: What about the viability, T/C [10] of the same compound?
Answer: 8.76%

Question: What about the viability, T/C [11] of the same compound?
Answer: 7.99%

Question: And the viability, T/C [12]?
Answer: 7.95%

Question: And the viability, T/C [13]?
Answer: 50.2%

Question: What about the viability, T/C [14] of the same compound?
Answer: 26.2%

Question: What about the viability, T/C [15] of the same compound?
Answer: 12.5%

Question: And the viability, T/C [16]?
Answer: 9.59%

Question: What about the viability, T/C [17] of the same compound?
Answer: 9.15%

Question: And the viability, T/C [18]?
Answer: 8%

Question: What about the viability, T/C [19] of the same compound?
Answer: 53.3%

Question: And the viability, T/C [20]?
Answer: 20.5%

Question: And the viability, T/C [21]?
Answer: 12.5%

Question: And the viability, T/C [22]?
Answer: 9.78%

Question: And the viability, T/C [23]?
Answer: 8.18%

Question: And the viability, T/C [24]?
Answer: 8.17%

Question: And the viability, T/C [25]?
Answer: 49.1%

Question: And the viability, T/C [26]?
Answer: 23.5%

Question: What about the viability, T/C [27] of the same compound?
Answer: 11.1%

Question: What about the viability, T/C [28] of the same compound?
Answer: 10.2%

Question: What about the viability, T/C [29] of the same compound?
Answer: 10.9%

Question: What about the viability, T/C [30] of the same compound?
Answer: 7.97%

Question: What about the viability, T/C [31] of the same compound?
Answer: 53.6%

Question: And the viability, T/C [32]?
Answer: 23.7%

Question: And the viability, T/C [33]?
Answer: 11.2%

Question: And the viability, T/C [34]?
Answer: 11%

Question: What about the viability, T/C [35] of the same compound?
Answer: 9.58%

Question: What about the viability, T/C [36] of the same compound?
Answer: 7.73%

Question: With CCc1c2c(nc3ccc(O)cc13)-c1cc3c(c(=O)n1C2)COC(=O)[C@]3(O)CC + CCn1c(-c2cc(N3CCN(C)CC3)cnc2C(C)OC)c2c3cc(ccc31)-c1csc(n1)CC(NC(=O)C1CC1C)C(=O)N1CCCC(N1)C(=O)OCC(C)(C)C2 as the compound, how does the IC50 (second compound 0.000949 µM) read?
Answer: 2.48 nM

Question: What about the IC50 (second compound 0.003 µM) of the same compound?
Answer: 2.46 nM

Question: What about the IC50 (second compound 0.00949 µM) of the same compound?
Answer: 3.33 nM

Question: And the IC50 (second compound 0.03 µM)?
Answer: 2.31 nM

Question: What about the IC50 (second compound 0.0949 µM) of the same compound?
Answer: 2.78 nM

Question: And the IC50 (second compound 0.3 µM)?
Answer: 2.42 nM

Question: What about the viability, T/C [1] of the same compound?
Answer: 88%

Question: What about the viability, T/C [2] of the same compound?
Answer: 42.6%

Question: What about the viability, T/C [3] of the same compound?
Answer: 12.3%

Question: And the viability, T/C [4]?
Answer: 6.15%

Question: What about the viability, T/C [5] of the same compound?
Answer: 2.77%

Question: What about the viability, T/C [6] of the same compound?
Answer: 1.87%

Question: And the viability, T/C [7]?
Answer: 80.7%

Question: What about the viability, T/C [8] of the same compound?
Answer: 43.8%

Question: What about the viability, T/C [9] of the same compound?
Answer: 13.4%

Question: What about the viability, T/C [10] of the same compound?
Answer: 5.78%

Question: What about the viability, T/C [11] of the same compound?
Answer: 2.15%

Question: And the viability, T/C [12]?
Answer: 1.76%

Question: What about the viability, T/C [13] of the same compound?
Answer: 84.5%

Question: And the viability, T/C [14]?
Answer: 53.7%

Question: And the viability, T/C [15]?
Answer: 13.5%

Question: What about the viability, T/C [16] of the same compound?
Answer: 6.16%

Question: And the viability, T/C [17]?
Answer: 3.17%

Question: What about the viability, T/C [18] of the same compound?
Answer: 1.91%

Question: And the viability, T/C [19]?
Answer: 90.9%

Question: And the viability, T/C [20]?
Answer: 38%

Question: And the viability, T/C [21]?
Answer: 11.6%

Question: What about the viability, T/C [22] of the same compound?
Answer: 5.22%

Question: What about the viability, T/C [23] of the same compound?
Answer: 2.72%

Question: What about the viability, T/C [24] of the same compound?
Answer: 2.61%

Question: What about the viability, T/C [25] of the same compound?
Answer: 88.9%

Question: What about the viability, T/C [26] of the same compound?
Answer: 47.3%

Question: And the viability, T/C [27]?
Answer: 17.3%

Question: And the viability, T/C [28]?
Answer: 6.18%

Question: What about the viability, T/C [29] of the same compound?
Answer: 2.99%

Question: And the viability, T/C [30]?
Answer: 1.97%

Question: What about the viability, T/C [31] of the same compound?
Answer: 87.1%

Question: What about the viability, T/C [32] of the same compound?
Answer: 41%

Question: And the viability, T/C [33]?
Answer: 19.7%

Question: And the viability, T/C [34]?
Answer: 7.26%

Question: What about the viability, T/C [35] of the same compound?
Answer: 3.82%

Question: And the viability, T/C [36]?
Answer: 1.95%
